Measured values as given in ChEMBL document CHEMBL3822420, “New peptide deformylase inhibitors design, synthesis and pharmacokinetic assessment” (Bioorg Med Chem Lett, 2016).
Converted amounts (≈) assume the structure as drawn.

What was measured:
Type in all cases: functional
[1] = tested on: Staphylococcus epidermidis; experiment: Antibacterial activity against methicillin-resistant Staphylococcus epidermidis 14-4
[2] = tested on: Staphylococcus epidermidis; experiment: Antibacterial activity against methicillin-sensitive Staphylococcus epidermidis 14-3
Staphylococcus aureus [3] = experiment: Antibacterial activity against methicillin-sensitive Staphylococcus aureus 14-3
[4] = tested on: Staphylococcus epidermidis; experiment: Antibacterial activity against methicillin-resistant Staphylococcus epidermidis 14-3
Staphylococcus aureus [5] = experiment: Antibacterial activity against methicillin-resistant Staphylococcus aureus 14-2
Enterococcus faecalis [6] = experiment: Antibacterial activity against Enterococcus faecalis 14-3
Enterococcus faecalis [7] = experiment: Antibacterial activity against Enterococcus faecalis 14-5
Staphylococcus aureus [8] = experiment: Antibacterial activity against methicillin-resistant Staphylococcus aureus 14-1
Enterococcus faecalis [9] = experiment: Antibacterial activity against Enterococcus faecalis 14-1
Escherichia coli [10] = experiment: Antibacterial activity against Escherichia coli 14-1 expressing extended-spectrum beta-lactamase
Escherichia coli [11] = experiment: Antibacterial activity against Escherichia coli 14-2
Enterococcus faecalis [12] = experiment: Antibacterial activity against Enterococcus faecalis 14-2
Staphylococcus aureus [13] = experiment: Antibacterial activity against methicillin-sensitive Staphylococcus aureus 14-1
Escherichia coli [14] = experiment: Antibacterial activity against Escherichia coli 14-2 expressing extended-spectrum beta-lactamase
Staphylococcus aureus [15] = experiment: Antibacterial activity against methicillin-resistant Staphylococcus aureus 14-5
Staphylococcus aureus [16] = experiment: Antibacterial activity against methicillin-sensitive Staphylococcus aureus 14-2
[17] = tested on: Staphylococcus epidermidis; experiment: Antibacterial activity against methicillin-resistant Staphylococcus epidermidis 14-1
Staphylococcus aureus [18] = experiment: Antibacterial activity against methicillin-sensitive Staphylococcus aureus 14-4
[19] = tested on: Staphylococcus epidermidis; experiment: Antibacterial activity against methicillin-resistant Staphylococcus epidermidis 14-2
[20] = tested on: Staphylococcus epidermidis; experiment: Antibacterial activity against methicillin-sensitive Staphylococcus epidermidis 14-1
[21] = tested on: Staphylococcus epidermidis; experiment: Antibacterial activity against methicillin-sensitive Staphylococcus epidermidis 14-2
Staphylococcus aureus [22] = experiment: Antibacterial activity against methicillin-resistant Staphylococcus aureus 14-4
Escherichia coli [23] = experiment: Antibacterial activity against Escherichia coli 14-1

| Compound | MIC [1] [µg/mL] | MIC [2] [µg/mL] | MIC (Staphylococcus aureus [3]) [µg/mL] | MIC [4] [µg/mL] | MIC (Staphylococcus aureus [5]) [µg/mL] | MIC (Enterococcus faecalis [6]) [µg/mL] | MIC (Enterococcus faecalis [7]) [µg/mL] | MIC (Staphylococcus aureus [8]) [µg/mL] | MIC (Enterococcus faecalis [9]) [µg/mL] | MIC (Escherichia coli [10]) [µg/mL] | MIC (Escherichia coli [11]) [µg/mL] | MIC (Enterococcus faecalis [12]) [µg/mL] | MIC (Staphylococcus aureus [13]) [µg/mL] | MIC (Escherichia coli [14]) [µg/mL] | MIC (Staphylococcus aureus [15]) [µg/mL] | MIC (Staphylococcus aureus [16]) [µg/mL] | MIC [17] [µg/mL] | MIC (Staphylococcus aureus [18]) [µg/mL] | MIC [19] [µg/mL] | MIC [20] [µg/mL] | also measured |
| --- | --- | --- | --- | --- | --- | --- | --- | --- | --- | --- | --- | --- | --- | --- | --- | --- | --- | --- | --- | --- | --- |
| CCCC[C@H](CN(O)C=O)C(=O)N1CC2(CC2)C[C@H]1C(=O)Nc1nccc(-c2cccnc2)n1 | 0.5 (≈ 1.07 µM) | 0.25 (≈ 0.536 µM) | 0.5 (≈ 1.07 µM) | 0.125 (≈ 0.268 µM) | 0.5 (≈ 1.07 µM) | 1 (≈ 2.14 µM) | 0.5 (≈ 1.07 µM) | 2 (≈ 4.29 µM) | 0.5 (≈ 1.07 µM) | 2 (≈ 4.29 µM) | > 64 | 0.5 (≈ 1.07 µM) | 0.25 (≈ 0.536 µM) | > 64 | 0.25 (≈ 0.536 µM) | 0.5 (≈ 1.07 µM) | 0.25 (≈ 0.536 µM) | 0.25 (≈ 0.536 µM) | 0.25 (≈ 0.536 µM) | 0.125 (≈ 0.268 µM) | MIC [21]: 0.5 µg/mL (≈ 1.07 µM); MIC (Staphylococcus aureus [22]): 2 µg/mL (≈ 4.29 µM); MIC (Escherichia coli [23]): > 64 µg/mL |
| CCCC[C@H](CN(O)C=O)C(=O)N1CC2(CC2)C[C@H]1c1nnc(-c2ccccn2)o1 | 4 (≈ 9.67 µM) | 0.5 (≈ 1.21 µM) | 2 (≈ 4.84 µM) | 0.5 (≈ 1.21 µM) | 4 (≈ 9.67 µM) | 8 (≈ 19.3 µM) | 8 (≈ 19.3 µM) | 4 (≈ 9.67 µM) | 4 (≈ 9.67 µM) | 0.5 (≈ 1.21 µM) | 64 (≈ 155 µM) | 8 (≈ 19.3 µM) | 4 (≈ 9.67 µM) | 64 (≈ 155 µM) | 2 (≈ 4.84 µM) | 2 (≈ 4.84 µM) | 1 (≈ 2.42 µM) | 2 (≈ 4.84 µM) | 0.5 (≈ 1.21 µM) | 1 (≈ 2.42 µM) | MIC [21]: 1 µg/mL (≈ 2.42 µM); MIC (Staphylococcus aureus [22]): 4 µg/mL (≈ 9.67 µM); MIC (Escherichia coli [23]): 128 µg/mL (≈ 310 µM) |
| CCCC[C@H](CN(O)C=O)C(=O)N1CC2(CC2)C[C@H]1c1nnc2ccccn12 | 1 (≈ 2.59 µM) | 0.5 (≈ 1.3 µM) | 1 (≈ 2.59 µM) | 0.25 (≈ 0.649 µM) | 1 (≈ 2.59 µM) | 8 (≈ 20.8 µM) | 8 (≈ 20.8 µM) | 1 (≈ 2.59 µM) | 4 (≈ 10.4 µM) | 2 (≈ 5.19 µM) | 128 (≈ 332 µM) | 8 (≈ 20.8 µM) | 1 (≈ 2.59 µM) | 128 (≈ 332 µM) | 1 (≈ 2.59 µM) | 1 (≈ 2.59 µM) | 0.5 (≈ 1.3 µM) | 1 (≈ 2.59 µM) | 0.5 (≈ 1.3 µM) | 0.25 (≈ 0.649 µM) | MIC [21]: 0.5 µg/mL (≈ 1.3 µM); MIC (Staphylococcus aureus [22]): 1 µg/mL (≈ 2.59 µM); MIC (Escherichia coli [23]): 128 µg/mL (≈ 332 µM) |
